Measured values as given in article PMC12126525, “Mechanism of ATP hydrolysis in the Hsp70 BiP nucleotide-binding domain” (Nature Communications, 2025).
“And” between values parts separate entries of the source, which are not always exact repeats. Identical values can stand only once. Each block holds one compound with its values, some of them ahead of it.

Biological target: BiP NBD (Homo sapiens, UniProt P11021)
Experiment: Global kinetic fit (MCMC) of four NMR data sets (E1+E2, E1 only, E2 only, no recycling): functional cycle kinetic parameters
Format: biochemical
Design: His6 (N, cleaved yes); made in house; host or cells: E. coli BL21-(DE3)-Lemo, pET28a vector
Details: for Kd: standard buffer
Description: It comprises 5 different states that are connected by […] reaction equations of first and second order. We consider ATP hydrolysis an irreversible reaction without backreaction. The other pathways are reversible dissociation/association reactions, arbitrarily labeled 1–5. The microscopic equations (elementary reactions) for these 11 reactions are given by:1 NBD^ATPkcat→NBD^ADP⋅Pi 2 NBD^ATPkoff1⇌kon1NBD^apo+ATP 3 NBD^ADPkoff2⇌kon2NBD^apo+ADP 4 NBD^Pikoff3⇌kon3NBD^apo+Pi 5 NBD^ADP⋅Pikoff4⇌kon4NBD^ADP+Pi 6 NBD^ADP⋅Pikoff5⇌kon5NBD^Pi+ADP With the forward and backward kinetic rate constants connected by thermodynamic equilibrium dissociation constants given by7 koffi/koni=KDifori=1,…,5 For each of the 5 states, a differential equation describing the conservation of mass can be derived:8 d/dtNBD^apo=+koff1NBD^ATP+koff2NBD^ADP+koff3NBD^Pi−kon1NBD^apoATP−kon2NBD^apoADP−kon3NBD^apoPi 9 d/dt[NBD^ATP]=+kon1NBD^apoATP−koff1NBD^ATP−kcatNBD^ATP 10 d/dtNBD^ADP⋅Pi=+kcatNBD^ATP+kon4NBD^ADPPi+kon5NBD^PiADP−koff4NBD^ADP⋅Pi−koff5NBD^ADP⋅Pi 11 d/dtNBD^ADP=+koff4NBD^ADP⋅Pi+kon2NBD^apoADP−koff2NBD^ADP−kon4NBD^ADPPi 12 d/dtNBD^Pi=+koff5NBD^ADP⋅Pi+kon3NBD^apoPi−koff3NBD^Pi−kon5NBD^PiADP Furthermore, we have the total amount13 NBD^apo+NBD^ATP+NBD^ADP+NBD^ADP⋅Pi+NBD^Pi=NBD0 These equations can be used for numerical fitting of steady-state and non-steady-state experimental data.
The experimental data of the BiP NBD in-cyclo experiments were fitted using standard reaction kinetics. Free variables were the kon and koff rates for the five reversible reaction and the catalytic rate constant (kcat) for the irreversible ATP hydrolysis step (See theory section). The initial values for kcat , koff2 , koff4 and koff5 were set to the value determined experimentally with in-cyclo experiment. The initial value for koff3 was taken from the EXSY experiment and the initial range for koff1 and KD1 were taken from the literature. […] The prior distributions were defined based on the average state occupancy resolved from the in-cyclo experiment: tNBD·ADP, tNBD, tNBD·ADP·Pi and tNBD·Pi. Numerical integration of the corresponding differential equations for the reaction scheme (described in Fig. 2a) was performed using a custom Python module (Kinetic).
To fully determine all kinetic parameters, the data fitting procedure was conducted as a global fit of four independent experimental datasets: (i) the in-cyclo experiment with ATP regeneration and phosphate removal, (ii) ATP regeneration only, (iii) single batch experiments starting from pure ATP with the phosphate removal system, and (iv) single batch experiments starting from pure ATP.
Fitting of the functional cycle kinetic parameters. a-d, Global fit of the experimental data presented in the manuscript E1 +E2 (a), E1 (b), E2 (c), no recycling system (d). Data points are shown as circles NBD·ADP (blue), NBD·ADP·PI (dark blue) and NBD·ATP (red) (left) and pyruvate (grey), glucose-1-P (lavender), ATP (red) and ADP (blue) (right). The fit of the data is shown as lines in the same color as the data points. Data points and standard deviation for three independent experiments. e, Numerical stability of the global fitting of the experimental data.

[1] = Supplementary Fig 10a, time 5 min
[2] = Supplementary Fig 10a, time 11 min
[3] = Supplementary Fig 10a, time 17 min
[4] = Supplementary Fig 10a, time 23 min
[5] = Supplementary Fig 10a, time 29 min
[6] = Supplementary Fig 10a, time 35 min
[7] = Supplementary Fig 10a, time 41 min
[8] = Supplementary Fig 10a, time 47 min
[9] = Supplementary Fig 10a, time 53 min
[10] = Supplementary Fig 10a, time 59 min
[11] = Supplementary Fig 10a, time 65 min
[12] = Supplementary Fig 10a, time 71 min
[13] = Supplementary Fig 10b, time 10 min
[14] = Supplementary Fig 10b, time 16 min
[15] = Supplementary Fig 10b, time 22 min
[16] = Supplementary Fig 10b, time 28 min
[17] = Supplementary Fig 10b, time 34 min
[18] = Supplementary Fig 10b, time 40 min
[19] = Supplementary Fig 10b, time 46 min
[20] = Supplementary Fig 10b, time 52 min
[21] = Supplementary Fig 10b, time 58 min
[22] = Supplementary Fig 10b, time 64 min
[23] = Supplementary Fig 10b, time 70 min
[24] = Supplementary Fig 10c, time 5 min
[25] = Supplementary Fig 10c, time 11 min
[26] = Supplementary Fig 10c, time 17 min
[27] = Supplementary Fig 10c, time 23 min
[28] = Supplementary Fig 10c, time 29 min
[29] = Supplementary Fig 10c, time 35 min
[30] = Supplementary Fig 10c, time 41 min
[31] = Supplementary Fig 10c, time 47 min
[32] = Supplementary Fig 10c, time 53 min
[33] = Supplementary Fig 10d, time 5 min
[34] = Supplementary Fig 10d, time 11 min
[35] = Supplementary Fig 10d, time 17 min
[36] = Supplementary Fig 10d, time 23 min
[37] = Supplementary Fig 10d, time 29 min
[38] = Supplementary Fig 10d, time 35 min
[39] = Supplementary Fig 10d, time 41 min
[40] = Supplementary Fig 10d, time 47 min
[41] = Supplementary Fig 10d, time 53 min
[42] = reactions 1-3 (koff1, koff2, koff3): release from binary complex, T = 37 °C
[43] = reactions 1-3: binding to apo NBD, T = 37 °C
[44] = reactions 1-3: ligand leaving the binary complex to give apo NBD, T = 37 °C

BiP NBD, sequence (P11021 19-406): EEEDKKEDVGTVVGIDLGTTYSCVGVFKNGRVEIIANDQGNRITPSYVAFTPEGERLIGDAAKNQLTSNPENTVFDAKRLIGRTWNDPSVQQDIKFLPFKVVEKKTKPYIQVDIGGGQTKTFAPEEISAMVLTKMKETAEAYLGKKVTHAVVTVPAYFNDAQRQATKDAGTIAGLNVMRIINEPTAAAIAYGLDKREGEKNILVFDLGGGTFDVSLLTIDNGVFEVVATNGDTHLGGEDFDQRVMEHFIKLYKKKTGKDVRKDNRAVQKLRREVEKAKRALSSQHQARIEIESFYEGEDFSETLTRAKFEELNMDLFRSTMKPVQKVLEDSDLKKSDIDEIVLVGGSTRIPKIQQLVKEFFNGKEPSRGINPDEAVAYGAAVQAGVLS

species [1]: 25 µM | species [2]: 25 µM | species [3]: 25 µM | species [4]: 25 µM | species [5]: 25 µM | species [6]: 25 µM | species [7]: 25 µM | species [8]: 25 µM | species [9]: 25 µM | species [10]: 25 µM | species [11]: 25 µM | species [12]: 25 µM | species [13]: 1011 µM | species [14]: 1602 µM | species [15]: 2255 µM | species [16]: 2820 µM | species [17]: 3384 µM | species [18]: 3735 µM | species [19]: 4207 µM | species [20]: 4544 µM | species [21]: 4962 µM | species [22]: 5335 µM | species [23]: 5727 µM | species [24]: 25 µM | species [25]: 25 µM | species [26]: 25 µM | species [27]: 25 µM | species [28]: 25 µM | species [29]: 25 µM | species [30]: 25 µM | species [31]: 25 µM | species [32]: 25 µM | species [33]: 936 µM | species [34]: 1380 µM | species [35]: 1670 µM | species [36]: 1894 µM | species [37]: 2069 µM | species [38]: 2212 µM | species [39]: 2337 µM | species [40]: 2452 µM | species [41]: 2552 µM | rate of phosphate release relative to ADP release from the ADP·Pi-bound state (koff4 versus koff5): 2.5 times | koff [42]: 1.3 ± 0.2 s⁻¹ | kon [43]: 5000 ± 1000 M⁻¹ s⁻¹ | Kd [44]: 260 ± 20 µM | koff (reactions 4, 5 (koff4, koff5): release from NBD·ADP·Pi, T = 37 °C): 0.047 ± 0.01 s⁻¹ | kon (reactions 4, 5: Pi binding to NBD·ADP, ADP binding to NBD·Pi, T = 37 °C): 200 ± 60 M⁻¹ s⁻¹ | Kd (reactions 4, 5: one ligand leaving NBD·ADP·Pi, the other stays bound, T = 37 °C): 235 ± 50 µM
Compound: O=P(O)(O)O [Pi]

kcat (NBD·ATP → NBD·ADP·Pi, T = 37 °C): 0.065 ± 0.013 s⁻¹ and 0.065 ± 0.01 s⁻¹ | species [1]: 4931 µM | species [2]: 4934 µM | species [3]: 4884 µM | species [4]: 4899 µM | species [5]: 4939 µM | species [6]: 4943 µM | species [7]: 4963 µM | species [8]: 4978 µM | species [9]: 5001 µM | species [10]: 5024 µM | species [11]: 5048 µM | species [12]: 5079 µM | species [13]: 5016 µM | species [14]: 4951 µM | species [15]: 4989 µM | species [16]: 4949 µM | species [17]: 5005 µM | species [18]: 4923 µM | species [19]: 4996 µM | species [20]: 4916 µM | species [21]: 4954 µM | species [22]: 4989 µM | species [23]: 4937 µM | species [24]: 4151 µM | species [25]: 3560 µM | species [26]: 3077 µM | species [27]: 2698 µM | species [28]: 1801 µM | species [29]: 1548 µM | species [30]: 1183 µM | species [31]: 1030 µM | species [32]: 902 µM | kcat fitted average (Supplementary Fig 11b, fitted): 0.065 s⁻¹ | species [33]: 4064 µM | species [34]: 3620 µM | species [35]: 3330 µM | species [36]: 3106 µM | species [37]: 2931 µM | species [38]: 2788 µM | species [39]: 2663 µM | species [40]: 2548 µM | species [41]: 2448 µM | factor by which ATP unbinding is rarer than ATP hydrolysis (koff1 versus kcat): 5 times | koff [42]: 0.012 ± 0.003 s⁻¹ | kon [43]: 32000 ± 9000 M⁻¹ s⁻¹ | Kd [44]: 0.38 ± 0.12 µM
Compound: Nc1ncnc2c1ncn2[C@@H]1O[C@H](COP(=O)(O)OP(=O)(O)OP(=O)(O)O)[C@@H](O)[C@H]1O [ATP]
